Reference: PMC4770593, “Efficient microbial production of stylopine using a Pichia pastoris expression system” (Scientific Reports, 2016)

Legend:
Test in all cases: LC-MS of product formed by Pichia cells expressing the enzyme
Assay type in all cases: cell-based
[1] = molecular target: T1, BBE (EcBBE), berberine bridge enzyme (Eschscholzia californica, UniProt P30986); settings: in vivo reaction, BMMY medium pH 6.0, 30 °C, 24 h; racemic substrate; vector control
T1 construct: gene BBE1; codon-optimized synthetic gene in pPIC3.5/pPIC3.5K; expressed in Pichia pastoris GS115; whole cells

[2] = molecular target: T2, CYP719A5 (EcCYP719A5), cheilanthifoline synthase (Eschscholzia californica, UniProt B5UAQ8); settings: in vivo reaction, BMMY medium pH 6.0, 30 °C, 24 h; vector control
T2 construct: codon-optimized synthetic gene in pPIC3.5/pPIC3.5K; expressed in Pichia pastoris GS115; whole cells, endogenous yeast reductase (no plant CPR)

[3] = molecular target: T3, CYP719A2 (EcCYP719A2), stylopine synthase (Eschscholzia californica, UniProt C3SBS2); settings: in vivo reaction, BMMY medium pH 6.0, 30 °C, 24 h; substrate supplied as CYP719A5 reaction product; vector control
T3 construct: codon-optimized synthetic gene in pPIC3.5/pPIC3.5K; expressed in Pichia pastoris GS115; whole cells, endogenous yeast reductase (no plant CPR)
T3 sequence (C3SBS2 entry or part of it): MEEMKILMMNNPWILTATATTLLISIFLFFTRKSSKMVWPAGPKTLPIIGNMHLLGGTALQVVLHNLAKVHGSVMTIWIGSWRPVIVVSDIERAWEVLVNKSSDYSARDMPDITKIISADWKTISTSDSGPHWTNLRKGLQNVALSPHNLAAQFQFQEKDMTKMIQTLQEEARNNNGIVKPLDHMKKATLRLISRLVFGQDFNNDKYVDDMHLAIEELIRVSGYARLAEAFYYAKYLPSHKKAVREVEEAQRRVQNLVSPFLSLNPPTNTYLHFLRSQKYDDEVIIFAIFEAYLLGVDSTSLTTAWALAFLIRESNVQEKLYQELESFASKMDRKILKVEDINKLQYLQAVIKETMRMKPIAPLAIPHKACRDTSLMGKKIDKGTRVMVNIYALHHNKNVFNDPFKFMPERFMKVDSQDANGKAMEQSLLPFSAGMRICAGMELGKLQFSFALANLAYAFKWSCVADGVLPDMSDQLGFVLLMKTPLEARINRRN

T1 sequence (P30986 24-538): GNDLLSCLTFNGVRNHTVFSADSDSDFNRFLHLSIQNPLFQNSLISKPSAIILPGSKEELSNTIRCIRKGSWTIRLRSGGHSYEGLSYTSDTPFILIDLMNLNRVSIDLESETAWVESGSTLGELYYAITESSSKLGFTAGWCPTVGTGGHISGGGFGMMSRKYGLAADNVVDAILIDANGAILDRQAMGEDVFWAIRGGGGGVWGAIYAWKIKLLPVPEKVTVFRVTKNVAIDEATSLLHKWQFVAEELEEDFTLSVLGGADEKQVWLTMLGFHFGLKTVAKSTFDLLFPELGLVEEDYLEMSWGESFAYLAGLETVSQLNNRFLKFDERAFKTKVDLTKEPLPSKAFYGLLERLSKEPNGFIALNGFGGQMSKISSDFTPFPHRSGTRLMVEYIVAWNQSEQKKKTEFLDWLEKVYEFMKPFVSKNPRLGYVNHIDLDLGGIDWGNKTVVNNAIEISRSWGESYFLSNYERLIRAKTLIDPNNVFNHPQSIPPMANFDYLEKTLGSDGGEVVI
T2 sequence (B5UAQ8 whole entry): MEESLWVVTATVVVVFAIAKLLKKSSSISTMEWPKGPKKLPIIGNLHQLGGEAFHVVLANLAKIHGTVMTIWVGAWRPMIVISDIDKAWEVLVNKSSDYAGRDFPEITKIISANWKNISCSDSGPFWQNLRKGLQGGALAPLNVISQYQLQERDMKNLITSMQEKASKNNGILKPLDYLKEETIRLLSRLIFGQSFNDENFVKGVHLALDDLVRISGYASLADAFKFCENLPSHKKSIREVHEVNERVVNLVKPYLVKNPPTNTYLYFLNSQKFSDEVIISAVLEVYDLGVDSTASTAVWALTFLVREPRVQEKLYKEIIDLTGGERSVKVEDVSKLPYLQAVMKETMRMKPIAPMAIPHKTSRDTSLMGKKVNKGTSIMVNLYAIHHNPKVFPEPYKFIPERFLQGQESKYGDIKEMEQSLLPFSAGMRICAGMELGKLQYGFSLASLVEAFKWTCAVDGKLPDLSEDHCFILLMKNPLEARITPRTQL

SMILES: COc1ccc(CC2c3cc(O)c(OC)cc3CCN2C)cc1O (racemic) [(R, S)-reticuline]
- LC-MS of product formed by Pichia cells expressing the enzyme [1]: reaction products of BBE and CYP719A5 (i.e., scoulerine from reticuline and cheilanthifoline from scoulerine)

SMILES: COc1cc2c(cc1O)[C@@H]1Cc3ccc(OC)c(O)c3CN1CC2 [(S)-scoulerine]
- LC-MS of product formed by Pichia cells expressing the enzyme [2]: The formation of cheilanthifoline by CYP719A5 from scoulerine was confirmed by the production of stylopine

SMILES: COc1cc2c(cc1O)[C@@H]1Cc3ccc4c(c3CN1CC2)OCO4 [cheilanthifoline]
- LC-MS of product formed by Pichia cells expressing the enzyme [3]: CYP719A5 reaction product (chielanthifoline) for CYP719A2 reaction
